Laboratory results reported in the supplement of paper PMC10307832.

Assays:
Experiment in all cases: relative viability (nuclei count vs DMSO), 5 days (fraction); higher = more cells survive
Everolimus + Phenformin = compound: CO[C@H]1C[C@@H]2CC[C@@H](C)[C@@](O)(O2)C(=O)C(=O)N2CCCC[C@H]2C(=O)O[C@H]([C@H](C)C[C@@H]2CC[C@@H](OCCO)[C@H](OC)C2)CC(=O)[C@H](C)/C=C(\C)[C@@H](O)[C@@H](OC)C(=O)[C@H](C)C[C@H](C)/C=C/C=C/C=C/1C [Everolimus] + N=C(N)NC(=N)NCCc1ccccc1 [Phenformin] (partner 250 µM)
In short: (§1)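 Lung cancer cell lines were seeded in 1536-well plates and dosed by pin tool the next day, with either a single drug or a fixed anchor-drug dose combined with five library-drug doses (not always all listed) spaced in √10 steps. Five days later, one step fixed the cells and stained their nuclei (final 0.05% Triton X-100, 1% formaldehyde, 1 ug/ml Hoechst), and nuclei were counted on 4× images. Relative viability is the nuclei count in treated wells divided by the count in vehicle wells, and each value is the median of duplicate plates.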

Everolimus + Lapatinib = compound: CO[C@H]1C[C@@H]2CC[C@@H](C)[C@@](O)(O2)C(=O)C(=O)N2CCCC[C@H]2C(=O)O[C@H]([C@H](C)C[C@@H]2CC[C@@H](OCCO)[C@H](OC)C2)CC(=O)[C@H](C)/C=C(\C)[C@@H](O)[C@@H](OC)C(=O)[C@H](C)C[C@H](C)/C=C/C=C/C=C/1C [Everolimus] + CS(=O)(=O)CCNCc1ccc(-c2ccc3ncnc(Nc4ccc(OCc5cccc(F)c5)c(Cl)c4)c3c2)o1 [Lapatinib] (partner 2 µM)
In short: as §1

Everolimus + Trametinib = compound: CO[C@H]1C[C@@H]2CC[C@@H](C)[C@@](O)(O2)C(=O)C(=O)N2CCCC[C@H]2C(=O)O[C@H]([C@H](C)C[C@@H]2CC[C@@H](OCCO)[C@H](OC)C2)CC(=O)[C@H](C)/C=C(\C)[C@@H](O)[C@@H](OC)C(=O)[C@H](C)C[C@H](C)/C=C/C=C/C=C/1C [Everolimus] + CC(=O)Nc1cccc(-n2c(=O)n(C3CC3)c(=O)c3c(Nc4ccc(I)cc4F)n(C)c(=O)c(C)c32)c1 [Trametinib] (partner 0.02 µM)
In short: as §1

Everolimus + Olaparib = compound: CO[C@H]1C[C@@H]2CC[C@@H](C)[C@@](O)(O2)C(=O)C(=O)N2CCCC[C@H]2C(=O)O[C@H]([C@H](C)C[C@@H]2CC[C@@H](OCCO)[C@H](OC)C2)CC(=O)[C@H](C)/C=C(\C)[C@@H](O)[C@@H](OC)C(=O)[C@H](C)C[C@H](C)/C=C/C=C/C=C/1C [Everolimus] + O=C(c1cc(Cc2n[nH]c(=O)c3ccccc23)ccc1F)N1CCN(C(=O)C2CC2)CC1 [Olaparib] (partner 8 µM)
In short: as §1

| Cell Line | relative viability (Everolimus + Phenformin; first compound 0.01 µM) | relative viability (Everolimus + Phenformin; first compound 0.03162 µM) | relative viability (Everolimus + Phenformin; first compound 0.1 µM) | relative viability (Everolimus + Phenformin; first compound 0.3162 µM) | relative viability (Everolimus + Phenformin; first compound 1 µM) | relative viability (Everolimus + Lapatinib; first compound 0.01 µM) | relative viability (Everolimus + Lapatinib; first compound 0.03162 µM) | relative viability (Everolimus + Lapatinib; first compound 0.1 µM) | relative viability (Everolimus + Lapatinib; first compound 0.3162 µM) | relative viability (Everolimus + Lapatinib; first compound 1 µM) | relative viability (Everolimus + Trametinib; first compound 0.01 µM) | relative viability (Everolimus + Trametinib; first compound 0.03162 µM) | relative viability (Everolimus + Trametinib; first compound 0.1 µM) | relative viability (Everolimus + Trametinib; first compound 0.3162 µM) | relative viability (Everolimus + Trametinib; first compound 1 µM) | relative viability (Everolimus + Olaparib; first compound 0.01 µM) | relative viability (Everolimus + Olaparib; first compound 0.03162 µM) | relative viability (Everolimus + Olaparib; first compound 0.1 µM) | relative viability (Everolimus + Olaparib; first compound 0.3162 µM) | relative viability (Everolimus + Olaparib; first compound 1 µM) |
| --- | --- | --- | --- | --- | --- | --- | --- | --- | --- | --- | --- | --- | --- | --- | --- | --- | --- | --- | --- | --- |
| NCI-H1944 | 0.183 | 0.19 | 0.165 | 0.208 | 0.222 | 0.633 | 0.669 | 0.617 | 0.604 | 0.541 | 0.311 | 0.303 | 0.341 | 0.312 | 0.298 | 0.389 | 0.329 | 0.325 | 0.35 | 0.351 |
| HARA | 0.412 | 0.489 | – | 0.419 | 0.466 | 0.546 | 0.468 | 0.541 | 0.714 | 0.526 | 0.425 | 0.394 | 0.346 | 0.559 | 0.339 | 0.78 | 0.762 | 0.86 | 0.84 | 0.471 |
| NCI-H2126 | 0.485 | 0.45 | 0.41 | 0.48 | 0.455 | 0.458 | 0.485 | 0.426 | 0.472 | 0.501 | 0.39 | 0.362 | 0.371 | 0.343 | 0.383 | 0.714 | 0.583 | 0.502 | 0.602 | 0.603 |
| LXF-289 | 0.526 | 0.541 | 0.507 | 0.574 | 0.512 | 0.908 | 0.951 | 0.889 | 0.889 | 0.899 | 0.625 | 0.537 | 0.574 | 0.508 | 0.528 | 1.03 | 1.04 | 0.885 | 1.03 | 1 |
| NCI-H460 | 0.492 | 0.57 | 0.588 | 0.538 | 0.315 | 0.912 | 0.919 | 0.805 | 0.866 | 0.84 | 0.082 | 0.101 | 0.114 | 0.0573 | 0.124 | 0.44 | 0.407 | 0.4 | 0.403 | 0.422 |
| NCI-H1395 | 0.386 | 0.398 | 0.425 | 0.401 | 0.371 | 0.886 | 0.755 | 0.585 | 0.614 | 0.869 | 0.724 | 0.641 | 0.657 | 0.694 | 0.652 | 0.405 | 0.423 | 0.377 | 0.401 | 0.379 |
| NCI-H2170 | 0.388 | 0.402 | 0.387 | 0.403 | 0.414 | 0.214 | 0.242 | 0.228 | 0.222 | 0.247 | 0.316 | 0.248 | 0.266 | 0.252 | 0.279 | 0.361 | 0.285 | 0.318 | 0.329 | 0.316 |
| NCI-H2009 | 0.427 | 0.464 | 0.421 | 0.451 | 0.402 | 0.853 | 0.782 | 0.441 | 0.878 | 0.877 | 0.132 | 0.121 | 0.14 | 0.138 | 0.158 | 0.601 | 0.456 | 0.364 | 0.492 | 0.446 |
